For assay [1], the target named is T1, glutathione-S-transferase (GST) tagged LXRbeta LBD (ligand binding domain) (Homo sapiens, UniProt P55055).
T1 construct: purchased Invitrogen pv4658.pps
T1 sequence (P55055 222-460 limits assumed): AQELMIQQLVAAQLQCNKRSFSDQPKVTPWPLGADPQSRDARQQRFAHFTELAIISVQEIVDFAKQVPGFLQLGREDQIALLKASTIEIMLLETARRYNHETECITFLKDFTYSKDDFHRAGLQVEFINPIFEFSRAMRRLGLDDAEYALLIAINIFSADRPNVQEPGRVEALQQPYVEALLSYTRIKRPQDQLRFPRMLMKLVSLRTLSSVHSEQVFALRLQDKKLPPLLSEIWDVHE
The assay can be described thus: LanthaScreen TR-FRET Liver X Receptor Coactivator Assay, co-activator recruitment to LXRbeta LBD. It is filed as biochemical. The settings on record: for Emax: efficacy at max dose, in relation to reference dual agonist T0901317, read-out: LXR beta Activity @ max dose (%); for pEC50: potency (Inflection Point, IP), co-activator recruitment to LXRbeta LBD, in relation to T0901317, read-out: LXR beta IP. In outline: (§1)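 TR-FRET coactivator recruitment; compound + LBD, then fluorescein-coactivator peptide/Tb-anti-GST Ab mix; RT incubation; IP and Emax vs T0901317.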

The target in assay [2] is T2, glutathione-S-transferase (GST) tagged LXRalpha LBD (ligand binding domain) (Homo sapiens, UniProt Q13133).
T2 construct: purchased Invitrogen pv4655
T2 sequence (Q13133 209-447 limits assumed): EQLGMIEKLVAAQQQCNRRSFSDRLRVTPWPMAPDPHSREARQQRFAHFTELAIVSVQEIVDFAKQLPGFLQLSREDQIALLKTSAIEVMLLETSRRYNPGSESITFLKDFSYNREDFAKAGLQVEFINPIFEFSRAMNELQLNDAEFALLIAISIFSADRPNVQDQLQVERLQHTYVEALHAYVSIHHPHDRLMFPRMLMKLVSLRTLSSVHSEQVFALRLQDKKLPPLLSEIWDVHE
Kind of assay: LanthaScreen TR-FRET Liver X Receptor Coactivator Assay, co-activator recruitment to LXRalpha LBD. It is filed as biochemical. Conditions: for Emax: efficacy at max dose, in relation to reference dual agonist T0901317, read-out: LXR alpha Activity @ max dose (%); for LXR alpha IP (nM) / pEC50: potency (Inflection Point, IP), co-activator recruitment to LXRalpha LBD, in relation to T0901317; for pEC50: read-out: LXR alpha IP. Summed up: as §1

SMILES strings stand for the structures. pEC50: −log10 of the molar value.

As to `COc1cc(Cl)cc([C@@](O)(C(=O)N2CCC(CC3CCN(c4ccc(C(=O)N(C)C)c(Cl)n4)CC3)CC2)C(F)(F)F)c1` [Example 7-107, 2-chloro-6-[4-({1-[(2R)-2-(3-chloro-5-methoxyphenyl)-3,3,3-trifluoro-2-hydroxypropanoyl]piperidin-4-yl}methyl)piperidin-1-yl]-N,N-dimethylpyridine-3-carboxamide], in assay [1], the Emax amounted to 26% and the pEC50 was 8.52. In addition, in assay [2], the Emax was 0% and the “LXR alpha IP (nM)” value is given as “NO IP”.

Consider `COc1cc(Cl)cc([C@](O)(C(=O)N2CCC(CC3CCN(c4ccc(C(=O)N(C)C)c(Cl)n4)CC3)CC2)C(F)(F)F)c1` [Example 7-108, 2-chloro-6-[4-({1-[(2S)-2-(3-chloro-5-methoxyphenyl)-3,3,3-trifluoro-2-hydroxypropanoyl]piperidin-4-yl}methyl)piperidin-1-yl]-N,N-dimethylpyridine-3-carboxamide], for which, in assay [1], the Emax is 101% and the pEC50 was 7.33. In assay [2], the Emax was 10% and the “LXR alpha IP (nM)” value is given as “NO IP”.

As for `CN(C)C(=O)c1ccc(N2CCC(CC3CCN(C(=O)C(O)(c4cc(F)cc(Cl)c4)C(F)(F)F)CC3)CC2)nc1Cl` (stereo not shown) [Example 7-109, 2-chloro-6-[4-({1-[2-(3-chloro-5-fluorophenyl)-3,3,3-trifluoro-2-hydroxypropanoyl]piperidin-4-yl}methyl)piperidin-1-yl]-N,N-dimethyl-pyridine-3-carboxamide], in assay [1], the Emax was found to be 107% and the pEC50 is 8.40. For the same molecule, in assay [2], the Emax stood at 52% and the pEC50 was 7.29.

Turning to `CN(C)C(=O)c1ccc(N2CCC(CC3CCN(C(=O)[C@@](N)(c4ccccc4)C(F)(F)F)CC3)CC2)nc1Cl` [Example 7-110, 6-[4-({1-[(2S)-2-amino-3,3,3-trifluoro-2-phenylpropanoyl]piperidin-4-yl}methyl)piperidin-1-yl]-2-chloro-N,N-dimethylpyridine-3-carboxamide], in assay [1], the Emax is 54% and the pEC50 is 6.93. In addition, in assay [2], the Emax came to 10% and the “LXR alpha IP (nM)” value is recorded as “NO IP”.

As to `CN(C)C(=O)c1ccc(N2CCC(CC3CCN(C(=O)[C@](N)(c4ccccc4)C(F)(F)F)CC3)CC2)nc1Cl` [Example 7-111, 6-[4-({1-[(2R)-2-amino-3,3,3-trifluoro-2-phenylpropanoyl]piperidin-4-yl}methyl)piperidin-1-yl]-2-chloro-N,N-dimethylpyridine-3-carboxamide], in assay [1], the Emax was 151% and the pEC50 was 7.31. Moreover, in assay [2], the Emax is 49% and the pEC50 was 5.76.

Consider `CN(C)C(=O)c1ccc(N2CCC(CC3CCN(C(=O)[C@](O)(c4cc(F)cc(Cl)c4)C(F)(F)F)CC3)CC2)nc1Cl` [Example 7-112, 2-chloro-6-[4-({1-[(2R)-2-(3-chloro-5-fluorophenyl)-3,3,3-trifluoro-2-hydroxypropanoyl]piperidin-4-yl}methyl)piperidin-1-yl]-N,N-dimethylpyridine-3-carboxamide], for which, in assay [1], the Emax was 96% and the pEC50 was 8.52. For the same molecule, in assay [2], the Emax was 45% and the pEC50 is 7.19.

Regarding `CN(C)C(=O)c1ccc(N2CCC(CC3CCN(C(=O)[C@@](O)(c4cc(F)cc(Cl)c4)C(F)(F)F)CC3)CC2)nc1Cl` [Example 7-113, 2-chloro-6-[4-({1-[(2S)-2-(3-chloro-5-fluorophenyl)-3,3,3-trifluoro-2-hydroxypropanoyl]piperidin-4-yl}methyl)piperidin-1-yl]-N,N-dimethylpyridine-3-carboxamide], in assay [1], the Emax was determined as 125% and the pEC50 was 7.47. Also, in assay [2], the Emax was 31% and the pEC50 is 5.79.

For the molecule `COc1cccc([C@@](N)(C(=O)N2CCC(CC3CCN(c4ccc(C(=O)N(C)C)c(Cl)n4)CC3)CC2)C(F)(F)F)c1` [Example 7-114, 6-[4-({1-[(2R)-2-amino-3,3,3-trifluoro-2-(3-methoxyphenyl)propanoyl]piperidin-4-yl}methyl)piperidin-1-yl]-2-chloro-N,N-dimethylpyridine-3-carboxamide], in assay [1], the Emax was found to be 21% and the pEC50 is 6.63. For the same molecule, in assay [2], the Emax amounted to 0% and the “LXR alpha IP (nM)” value was “NO IP”.

As for `CN(C)C(=O)c1ccc(N2CCC(CC3CCN(C(=O)[C@](O)(c4cccc(OC(F)F)c4)C(F)(F)F)CC3)CC2)nc1Cl` [Example 7-115, 2-chloro-6-{4-[(1-{(2R)-2-[3-(difluoromethoxy)phenyl]-3,3,3-trifluoro-2-hydroxypropanoyl}piperidin-4-yl)methyl]piperidin-1-yl}-N,N-dimethylpyridine-3-carboxamide], in assay [1], the Emax is 60% and the pEC50 is 8.30. Also, in assay [2], the Emax worked out at 17% and the pEC50 was 6.60.

As for `CNC(=O)c1ccc(N2CCC(CC3CCN(C(=O)[C@](O)(c4cc(Cl)cc(Cl)c4)C(F)(F)F)CC3)CC2)cc1Cl` [Example 7-116, 2-chloro-4-[4-({1-[(2R)-2-(3,5-dichlorophenyl)-3,3,3-trifluoro-2-hydroxypropanoyl]piperidin-4-yl}methyl)piperidin-1-yl]-N-methylbenzamide], in assay [1], the Emax amounted to 76% and the pEC50 is 7.89. Besides, in assay [2], the Emax is 9% and the “LXR alpha IP (nM)” value is recorded as “NO IP”.

On to `CNC(=O)c1ccc(N2CCC(CC3CCN(C(=O)[C@](O)(c4cc(Cl)cc(OC)c4)C(F)(F)F)CC3)CC2)cc1Cl` [Example 7-117, 2-chloro-4-[4-({1-[(2R)-2-(3-chloro-5-methoxyphenyl)-3,3,3-trifuoro-2-hydroxypropanoyl]piperidin-4-yl}methyl)piperidin-1-yl]-N-methylbenzamide], for which, in assay [1], the Emax turned out to be 35% and the pEC50 was 7.60. In assay [2], the Emax was determined as 0% and the “LXR alpha IP (nM)” value was “NO IP”.

In the case of `CNC(=O)c1ccc(N2CCC(CC3CCN(C(=O)[C@](O)(c4cc(F)cc(OC)c4)C(F)(F)F)CC3)CC2)cc1Cl` [Example 7-118, 2-chloro-N-methyl-4-[4-({1-[(2R)-3,3,3-trifluoro-2-(3-fluoro-5-methoxyphenyl)-2-hydroxypropanoyl]piperidin-4-yl}methyl)piperidin-1-yl]benzamide], the Emax in assay [1] was found to be 98%; in assay [2] it was 20%. Further, the pEC50 in assay [1] was 8.15; in assay [2], 6.61.

As to `CNC(=O)c1ccc(N2CCC(CC3CCN(C(=O)[C@](O)(c4cccc(Br)c4)C(F)(F)F)CC3)CC2)cc1Cl` [Example 7-119, 4-[4-({1-[(2R)-2-(3-bromophenyl)-3,3,3-trifluoro-2-hydroxypropanoyl]piperidin-4-yl}methyl)piperidin-1-yl]-2-chloro-N-methyl-benzamide], in assay [1], the Emax was found to be 82% and the pEC50 is 7.92. Also, in assay [2], the Emax was 32% and the pEC50 was 6.74.

Regarding `CCc1cccc([C@@](O)(C(=O)N2CCC(CC3CCN(c4ccc(C(=O)NC)c(Cl)c4)CC3)CC2)C(F)(F)F)c1` [Example 7-120, 2-chloro-4-[4-({1-[(2R)-2-(3-ethylphenyl)-3,3,3-trifluoro-2-hydroxypropanoyl]piperidin-4-yl}methyl)piperidin-1-yl]-N-methylbenzamide], in assay [1], the Emax was found to be 60% and the pEC50 was 7.66. Moreover, in assay [2], the Emax is 12% and the “LXR alpha IP (nM)” value is “NO IP”.

Regarding `CNC(=O)c1ccc(N2CCC(CC3CCN(C(=O)[C@](O)(c4cccc(OC(C)C)c4)C(F)(F)F)CC3)CC2)cc1Cl` [Example 7-121, 2-chloro-N-methyl-4-{4-[(1-{(2R)-3,3,3-trifluoro-2-hydroxy-2-[3-(1-methylethoxy)phenyl]propanoyl}piperidin-4-yl)methyl]piperidin-1-yl}benzamide], in assay [1], the Emax came out at 69% and the pEC50 is 7.68. In assay [2], the Emax was 11% and the “LXR alpha IP (nM)” value is reported as “NO IP”.

Consider `CNC(=O)c1ccc(N2CCC(CC3CCN(C(=O)C(O)(c4cc(F)cc(F)c4)C(F)(F)F)CC3)CC2)cc1Cl` (stereo not shown) [Example 7-122, 2-chloro-4-[4-({1-[2-(3,5-difluorophenyl)-3,3,3-trifluoro-2-hydroxypropanoyl]piperidin-4-yl}methyl)piperidin-1-yl]-N-methylbenzamide], for which, in assay [1], the Emax turned out to be 104% and the pEC50 was 8.05. For the same molecule, in assay [2], the Emax came to 54% and the pEC50 is 7.03.
